The values that follow come from PubChem BioAssay (NCI).

SMILES strings stand for the structures.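 Results reflect a 48-hour exposure of cells in 96-well plates to compound at five concentrations. Abbreviation: GI50, concentration required for 50% inhibition of growth. TGI: concentration producing complete growth inhibition.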

Some test systems named below: 786-0 renal; IGROV1 ovarian; NCI-H226 lung; RPMI-8226 leukemia; RXF 393 renal; SF-268 CNS; SK-OV-3 ovarian; SR leukemia; TK-10 renal; U251 CNS.
Holding throughout (test): inhibition of tumour cell growth, NCI panel, 48 h

As for `COc1cc(F)cc([C@@H](CO)NC(=O)[C@@H](C)N2Cc3ccc(-c4nc(NC5CCOCC5)ncc4Cl)cc3C2=O)c1`, the GI50 in the test on 786-0 renal is 9.23 µM; in the test with IGROV1 ovarian, 0.0409 µM; in the test with NCI-H226 lung it was 1.3 µM; with RPMI-8226 leukemia, 1.83 µM; in the test on RXF 393 renal it was 0.205 µM; with SF-268 CNS it was 14.1 µM. Further, the GI50 was 3.25 µM in the test on SK-OV-3 ovarian, 10.8 µM in the test with SR leukemia, 0.0624 µM in the test on TK-10 renal and 8.72 µM in the test on U251 CNS. Moreover, the TGI with 786-0 renal was above 100 µM; with IGROV1 ovarian, 35.6 µM; in the test on NCI-H226 lung, 33.2 µM; in the test with RPMI-8226 leukemia, 38.1 µM; in the test on RXF 393 renal, 19.8 µM; in the test with SF-268 CNS it was 99.6 µM. For the same compound, the TGI in the test with SK-OV-3 ovarian is above 100 µM; in the test with SR leukemia, 70.7 µM; with TK-10 renal, above 76.8 µM; in the test with U251 CNS, above 100 µM.
Turning to `COc1ccc(-c2nn(-c3cccc(Cl)c3)cc2-c2c(C#N)c(=O)n3[nH]c(-c4ccc(C)cc4)nc3c2C#N)cc1`, the GI50 in the test with 786-0 renal was 1.39 µM; with IGROV1 ovarian, 3.51 µM; in the test on NCI-H226 lung it was 2.39 µM; in the test with RPMI-8226 leukemia it was 4.57 µM; with RXF 393 renal, 0.858 µM; in the test on SF-268 CNS, 1.62 µM. The GI50 in the test on SK-OV-3 ovarian was 3.3 µM; in the test with SR leukemia, 1.43 µM; in the test with TK-10 renal, 2.01 µM; with U251 CNS, 0.797 µM. Also, the TGI in the test with 786-0 renal was determined as 5.93 µM; in the test on IGROV1 ovarian, 11.3 µM; in the test with NCI-H226 lung it was 9.62 µM; in the test with RPMI-8226 leukemia, 33 µM; with RXF 393 renal it was 2.48 µM; in the test on SF-268 CNS, 7.76 µM. For the same compound, the TGI with SK-OV-3 ovarian came out at 9.54 µM; in the test on SR leukemia it was 10.1 µM; with TK-10 renal, 7.35 µM; in the test with U251 CNS, 1.59 µM.
Regarding `COc1ccc(-c2nnc(-c3c(C)n(C)n(-c4ccccc4)c3=O)o2)cc1`, the TGI with 786-0 renal, in the test on IGROV1 ovarian, with NCI-H226 lung, with RPMI-8226 leukemia, in the test with RXF 393 renal and in the test with SF-268 CNS was above 100 µM each time. The TGI with SK-OV-3 ovarian, in the test with SR leukemia, with TK-10 renal and in the test on U251 CNS was above 100 µM in each case.
`CN[C@@H]1C[C@H]2O[C@@](C)([C@@H]1OC)n1c3ccccc3c3c4c(c5c6ccccc6n2c5c31)C(=O)N[C@H]4O`: the TGI with 786-0 renal was 0.203 µM; in the test on IGROV1 ovarian it was 0.102 µM; in the test with NCI-H226 lung it was above 4.01 µM; in the test with RPMI-8226 leukemia, 1.49 µM; with RXF 393 renal it was 0.0534 µM; in the test on SF-268 CNS, 2.31 µM. Besides, the TGI is 0.298 µM in the test with SK-OV-3 ovarian, 1.92 µM in the test on SR leukemia, 0.0541 µM in the test with TK-10 renal and 0.651 µM in the test on U251 CNS. Moreover, the GI50 was 0.0188 µM with IGROV1 ovarian; 0.0269 µM in the test on NCI-H226 lung; 0.186 µM in the test with RPMI-8226 leukemia; 0.024 µM with SF-268 CNS; 0.0337 µM in the test with SK-OV-3 ovarian; 0.0336 µM with SR leukemia. For the same compound, the GI50 was 0.0096 µM with TK-10 renal and 0.0676 µM in the test on U251 CNS.
With `COc1cc2c(cc1OC)C(CC1(O)CCCCC1)N(S(=O)(=O)c1ccc(C)cc1)CC2` (stereo not drawn), the GI50 in the test with 786-0 renal, with IGROV1 ovarian, in the test on NCI-H226 lung, in the test on RPMI-8226 leukemia, in the test on RXF 393 renal and with SF-268 CNS was above 10 µM each time. Further, the GI50 in the test with SK-OV-3 ovarian, in the test with SR leukemia, in the test on TK-10 renal and in the test with U251 CNS was above 10 µM throughout. The TGI in the test on 786-0 renal, with IGROV1 ovarian, in the test with NCI-H226 lung, with RPMI-8226 leukemia, in the test with RXF 393 renal and in the test with SF-268 CNS was above 10 µM each time. The TGI in the test with SK-OV-3 ovarian, with SR leukemia, in the test with TK-10 renal and with U251 CNS was above 10 µM throughout.
`Oc1ccc2ccccc2c1C1NN=C(c2ccccc2)S1` (stereo not drawn): the GI50 was 0.424 µM in the test with 786-0 renal; 0.485 µM in the test on IGROV1 ovarian; 0.647 µM with NCI-H226 lung; 0.237 µM with RPMI-8226 leukemia; 0.812 µM in the test with RXF 393 renal; 0.418 µM with SF-268 CNS. For the same compound, the GI50 was 0.519 µM in the test with SK-OV-3 ovarian, 0.473 µM in the test with SR leukemia, 0.559 µM in the test on TK-10 renal and 0.461 µM in the test with U251 CNS. Moreover, the TGI is above 34.6 µM in the test with 786-0 renal; 30.3 µM in the test on IGROV1 ovarian; 14.2 µM in the test with NCI-H226 lung; above 100 µM in the test with RPMI-8226 leukemia; 20 µM in the test on RXF 393 renal; 29.1 µM in the test on SF-268 CNS. Further, the TGI in the test with SK-OV-3 ovarian is 20.5 µM; with SR leukemia, above 100 µM; in the test on TK-10 renal, 38.2 µM; in the test with U251 CNS it was 48.5 µM.
Regarding `CCC(=O)C(C)C(=O)C(=O)C(=O)OC` (stereo not drawn), the TGI with 786-0 renal was above 100 µM; with IGROV1 ovarian, above 100 µM; in the test on NCI-H226 lung, above 100 µM; in the test with RPMI-8226 leukemia, above 100 µM; with RXF 393 renal, 99.3 µM; with SF-268 CNS it was above 100 µM. In addition, the TGI in the test on SK-OV-3 ovarian was above 100 µM; with SR leukemia it was above 100 µM; in the test on TK-10 renal, above 100 µM; in the test with U251 CNS, above 68.2 µM.
`COC(=O)[C@@]1(O)CC(C)C=C1C=O` (stereo partly drawn): the TGI is above 100 µM with 786-0 renal; above 100 µM with IGROV1 ovarian; above 100 µM in the test on NCI-H226 lung; above 100 µM with RPMI-8226 leukemia; 42.9 µM in the test with RXF 393 renal; above 100 µM in the test with SF-268 CNS. Moreover, the TGI in the test with SK-OV-3 ovarian is above 100 µM; in the test on SR leukemia, above 100 µM; in the test on TK-10 renal, above 100 µM; in the test on U251 CNS, 38.4 µM.
Regarding `C[C@@H](NC(=O)[C@@H](CC(=O)N1CCC(N2CCCCC2)CC1)N1C(=O)[C@@H](N2C(=O)OC[C@@H]2c2ccccc2)[C@H]1/C=C/c1cccc(Cl)c1)c1ccccc1`, the GI50 was 1.88 µM in the test with 786-0 renal; 4.62 µM with IGROV1 ovarian; 14.8 µM in the test on NCI-H226 lung; 2.93 µM with RPMI-8226 leukemia; 2.15 µM with RXF 393 renal; 2.31 µM in the test with SF-268 CNS. The GI50 was 12.9 µM in the test with SK-OV-3 ovarian, 2.61 µM in the test with SR leukemia, 1.92 µM with TK-10 renal and 2.03 µM in the test on U251 CNS. Moreover, the TGI was 3.95 µM in the test on 786-0 renal; 19.2 µM in the test with IGROV1 ovarian; 31.2 µM in the test with NCI-H226 lung; 8.32 µM with RPMI-8226 leukemia; 3.98 µM in the test on RXF 393 renal; 7.21 µM in the test on SF-268 CNS. The TGI with SK-OV-3 ovarian amounted to 27.5 µM; with SR leukemia, 7.78 µM; with TK-10 renal, 4.76 µM; in the test with U251 CNS, 4.06 µM.
